Experimental data from patent publication US20230339900A1, “CASEIN KINASE 1 DELTA MODULATORS” (Janssen Pharmaceutica NV, priority 2020, published 2023).

What was measured:
[1] = target: human CSNK1D tagged with nanoluciferase (Homo sapiens (Human), UniProt P48730); assay: Whole Cell nBRET CSNK1D Binding Assay; settings: living CHO cells stably expressing human CSNK1D-nanoluciferase; NanoBret tracer 130 nM; 2 hours 37° C.; read-out: CSNK1D BRET IC50
Method: This cellular binding assay uses a bioluminescence resonance energy transfer to measure human CSNK1D binding activity in living Chinese Hamster Ovary (CHO) cells that are stably expressing human CSNK1D tagged with nanoluciferase. The cells were grown to confluency in growth media (DMEM:F12, 50 u/mLPen/Strep, […] glutamine, and 0.6 mg/mL G418) in 10 cm^2 dishes. Cells were seeded onto white, opaque 384-well plates (Corning, cat #3704) at a density of 8,000 cells/well in serum-free OptiMEM and left to incubated overnight at 37° C., […]. The next day, test compounds were added in a dose response to the plate followed by a NanoBret tracer (130 nM). The plate is mixed on an orbital shaker for 30 seconds, then placed in a 37° C. incubator for 2 hours. NanoBret Nano-Glo Substrate solution (20 μL) is added to all wells and incubated for 3 minutes at room temperature. Donor (450 nm) and acceptor (630 nm) emissions are then measured within 10 minutes using a ClarioStar plate reader. The data is used to calculate millibret units, defined as (E630/E450)*1000. Bret emissions are then graphed against the log of compound concentrations and these graphs are used to determine the IC50 of each compound.

[2] = target: human recombinant GST cleaved CSNK1D (Homo sapiens (Human), UniProt P48730); assay: Purified enzyme assay (ADP-Glo Kinase Assay); type: biochemical; settings: 2 nM CSNK1D, peptide substrate 150 μM, ATP 20 μM, 45 minutes room temperature
human recombinant GST cleaved CSNK1D, sequence (P48730 whole entry): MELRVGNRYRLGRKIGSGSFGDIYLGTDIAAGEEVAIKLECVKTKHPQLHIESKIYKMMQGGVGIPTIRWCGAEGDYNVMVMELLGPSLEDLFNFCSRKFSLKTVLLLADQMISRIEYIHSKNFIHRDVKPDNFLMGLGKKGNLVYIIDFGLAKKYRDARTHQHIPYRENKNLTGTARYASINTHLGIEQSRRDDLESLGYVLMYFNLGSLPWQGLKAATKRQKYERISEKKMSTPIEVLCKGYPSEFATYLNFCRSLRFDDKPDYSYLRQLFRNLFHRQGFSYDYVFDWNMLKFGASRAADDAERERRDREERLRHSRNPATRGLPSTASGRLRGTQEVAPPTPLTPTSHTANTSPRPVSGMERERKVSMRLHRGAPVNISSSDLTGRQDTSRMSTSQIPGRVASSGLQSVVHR
Method: In this assay, CSNK1D phosphorylates a substrate peptide PLSRTL-pS-VASLPGL in the presence of ATP. […] This assay monitors CSNK1D kinase activity by measuring the amount of ADP produced in the assay. A substrate mix is prepared by diluting peptide substrate (final concentration 150 μM) with ATP (final concentration 20 μM) in assay buffer (50 mM Tris/HCl pH 7.4+10 mM MgCl2+1 mM DTT+0.1% BSA). The substrate mix is added to each well of a low volume, 384-well, white opaque plate. Test compounds were diluted in HBSS and added in a dose-response to the plate. To start the reaction, 2 nM of constitutively active human recombinant GST cleaved CSNK1D (University of Dundee, clone DU 19064, stored at 0.28 mg/mL in 50 mM Tris/HCl pH 7.5, 150 mM NaCl, 270 mM Sucrose, 0.1 mM EGTA, 0.1% 2-mercaptoethanol, 0.02% Brij-35.1 mM benzamidine, 0.2 mM PMSF) was added to each well and the plate centrifuged for 5 minutes at 1500 rpm. The total volume of each reaction is 5 ul (2 μL of substrate mix, 1 μL of diluted compounds, and 2 μL of human recombinant CSNK1D). The plates are incubated for 45 minutes at room temperature.
ADP was quantified using the ADP-Glo™ Kinase Assay. ADP-Glo Reagent (5 μL) was added to each well. After a 1 hour incubation at room temperature, Kinase Detection Reagent (10 μL) was added to each well and incubated for 30 minutes. Luminescence was measured on the Perkin Elmer Wallac EnVision 2104 Multi-label Reader. The raw data from the Envision is used to calculate percent activity.

human CSNK1D tagged with nanoluciferase, sequence (P48730 whole entry): as above

| SMILES | IC50 [1] [nM] | AC50 [2] [nM] |
| --- | --- | --- |
| Cc1csc2c(-c3cn(C)nc3-c3ccc(F)cn3)ccnc12 [Example 132, 7-[3-(5-Fluoro-2-pyridyl)-1-methyl-pyrazol-4-yl]-3-methyl-thieno[3,2-b]pyridine] | 5170 | 361 |
| Cn1cc(-c2ccnc3[nH]cc(CC#N)c23)c(-c2ccc(F)cn2)n1 [Example 120, 2-[4-[3-(5-Fluoro-2-pyridyl)-1-methyl-pyrazol-4-yl]-1H-pyrrolo[2,3-b]pyridin-3-yl]acetonitrile] | 8710 | 31 |
| Cn1cc(-c2nc(C3CC3)nc3[nH]ccc23)c(-c2ccc(F)cn2)n1 [Example 125, 2-Cyclopropyl-4-[3-(5-fluoro-2-pyridyl)-1-methyl-pyrazol-4-yl]-7H-pyrrolo[2,3-d]pyrimidine] | 1910 | 66 |
| Cn1cc(-c2ccnc3cc[nH]c23)c(-c2ccc(F)cn2)n1 [Example 4, 7-(3-(5-Fluoropyridin-2-yl)-1-methyl-1H-pyrazol-4-yl)-1H-pyrrolo[3,2-b]pyridine] | 2360 | 118 |
| Cc1nc(-c2cn(C)nc2-c2ccc(F)cn2)c2cn[nH]c2n1 [Example 124, 4-[3-(5-Fluoro-2-pyridyl)-1-methyl-pyrazol-4-yl]-6-methyl-1H-pyrazolo[3,4-d]pyrimidine] | 1940 | 52 |
| Cn1cc(-c2ccnc3cc(Cl)ccc23)c(-c2ccc(F)cn2)n1 [Example 105, 7-Chloro-4-[3-(5-fluoro-2-pyridyl)-1-methyl-pyrazol-4-yl]quinoline] | 817 | 25 |
| Cn1cc(-c2ccnc3[nH]ccc23)c(-c2cnccn2)n1 [Example 46, 4-(1-Methyl-3-pyrazin-2-yl-pyrazol-4-yl)-1H-pyrrolo[2,3-b]pyridine] | 2190 | 84 |
| COc1ncc(-c2nn(C)cc2-c2cc(C)nc3[nH]ncc23)cc1C [Example 141, 4-[3-(6-Methoxy-5-methyl-3-pyridyl)-1-methyl-pyrazol-4-yl]-6-methyl-1H-pyrazolo[3,4-b]pyridine] | 2020 | 44 |
| COc1cc2nccc(-c3cn(C)nc3-c3ccc(F)cn3)c2cn1 [Example 154, 4-[3-(5-Fluoro-2-pyridyl)-1-methyl-pyrazol-4-yl]-7-methoxy-1,6-naphthyridine] | 522 | 25 |
| Cn1cc(-c2ccnc3c2CCC3)c(-c2ccc(F)cn2)n1 [Example 2, 4-(3-(5-Fluoropyridin-2-yl)-1-methyl-1H-pyrazol-4-yl)-6,7-dihydro-5H-cyclopenta[b]pyridine] | 955 | 37 |
| Cn1cc(-c2ccnc3cc(F)cnc23)c(-c2ccc(F)cn2)n1 [Example 152, 3-Fluoro-8-[3-(5-fluoro-2-pyridyl)-1-methyl-pyrazol-4-yl]-1,5-naphthyridine] | 578 | 73 |
| Cn1cc(-c2c(CC#N)cnc3[nH]ccc23)c(-c2ccc(F)cn2)n1 [Example 90, 2-[4-[3-(5-Fluoro-2-pyridyl)-1-methyl-pyrazol-4-yl]-1H-pyrrolo[2,3-b]pyridin-5-yl]acetonitrile] | 7160 | 75 |
| Cn1cc(-c2ccnc3[nH]cc(C(F)(F)F)c23)c(-c2ccc(F)cn2)n1 [Example 86, 4-(3-(5-Fluoropyridin-2-yl)-1-methyl-1H-pyrazol-4-yl)-3-(trifluoromethyl)-1H-pyrrolo[2,3-b]pyridine] | 1060 | 48 |
| Cn1cc(-c2ccnc3c2CC(=O)N3)c(-c2ccc(F)cn2)n1 [Example 3, 4-(3-(5-Fluoropyridin-2-yl)-1-methyl-1H-pyrazol-4-yl)-1,3-dihydro-2H-pyrrolo[2,3-b]pyridin-2-one] | 1500 | 58 |
| Cc1cc(-c2cn(C(C)C)nc2-c2ccc(F)cn2)c2cn[nH]c2n1 [Example 60, 4-(3-(5-Fluoropyridin-2-yl)-1-isopropyl-1H-pyrazol-4-yl)-6-methyl-1H-pyrazolo[3,4-b]pyridine] | 372 | 11 |
| Cn1cc(-c2ccnc3[nH]ncc23)c(-c2ccc(F)cn2)n1 [Example 98, 4-(3-(5-Fluoropyridin-2-yl)-1-methyl-1H-pyrazol-4-yl)-1H-pyrazolo[3,4-b]pyridine] | 2350 | 76 |
| COc1ccc2c(-c3cn(C)nc3-c3ccc(F)cn3)ccnc2c1 [Example 108, 4-[3-(5-Fluoro-2-pyridyl)-1-methyl-pyrazol-4-yl]-7-methoxy-quinoline] | 373 | 13 |

The next compounds have a lower IC50 [1] than those just listed; values first:

| IC50 [1] [nM] | AC50 [2] [nM] | SMILES |
| --- | --- | --- |
| 318 | 22 | COc1cnc2c(-c3cn(C)nc3-c3ccc(F)cn3)ccnc2c1 [Example 155, 8-[3-(5-Fluoro-2-pyridyl)-1-methyl-pyrazol-4-yl]-3-methoxy-1,5-naphthyridine] |
| 103 | 11 | CCOc1ccc2nccc(-c3cn(C)nc3-c3ccc(F)cn3)c2n1 [Example 128, 2-Ethoxy-8-[3-(5-fluoro-2-pyridyl)-1-methyl-pyrazol-4-yl]-1,5-naphthyridine] |
| 171 | 21 | Fc1ccc(-c2nn(C(F)F)cc2-c2ccnc3[nH]ccc23)nc1 [Example 65, 4-[1-(Difluoromethyl)-3-(5-fluoro-2-pyridyl)pyrazol-4-yl]-1H-pyrrolo[2,3-b]pyridine] |
| 197 | 12 | Cc1cc(-c2cn(C)nc2-c2ccc(F)cn2)c2c(C)n[nH]c2n1 [Example 100, 4-[3-(5-Fluoro-2-pyridyl)-1-methyl-pyrazol-4-yl]-3,6-dimethyl-1H-pyrazolo[3,4-b]pyridine] |
| 319 | 15 | Cn1cc(-c2ccnc3[nH]ccc23)c(-c2nccs2)n1 [Example 16, 2-(1-Methyl-4-(1H-pyrrolo[2,3-b]pyridin-4-yl)-1H-pyrazol-3-yl)thiazole] |
| 147 | 10 | COc1ccc2nccc(-c3cn(C)nc3-c3ccc(F)cn3)c2n1 [Example 103, 8-[3-(5-Fluoro-2-pyridyl)-1-methyl-pyrazol-4-yl]-2-methoxy-1,5-naphthyridine] |
| 326 | 44 | CC(C)n1cc(-c2ccnc3[nH]ncc23)c(-c2ccc(F)cn2)n1 [Example 59, 4-(3-(5-Fluoropyridin-2-yl)-1-isopropyl-1H-pyrazol-4-yl)-1H-pyrazolo[3,4-b]pyridine] |
| 219 | 14 | CCn1cc(-c2cc(C)nc3[nH]ncc23)c(-c2ccc(F)cn2)n1 [Example 57, 4-(1-Ethyl-3-(5-fluoropyridin-2-yl)-1H-pyrazol-4-yl)-6-methyl-1H-pyrazolo[3,4-b]pyridine] |
| 17 | 1 | Cn1cc(-c2ccnc3[nH]cc(Cl)c23)c(-c2ccc(F)cn2)n1 [Example 76, 3-Chloro-4-[3-(5-fluoro-2-pyridyl)-1-methyl-pyrazol-4-yl]-1H-pyrrolo[2,3-b]pyridine] |
| 178 | 4 | Cn1cc(-c2ccnc3[nH]ccc23)c(-c2cc(F)ccn2)n1 [Example 27, 4-[3-(4-Fluoro-2-pyridyl)-1-methyl-pyrazol-4-yl]-1H-pyrrolo[2,3-b]pyridine] |
| 32 | 2 | Cn1cc(-c2cc(N)nc3[nH]ccc23)c(-c2ccc(F)cn2)n1 [Example 119, 4-[3-(5-Fluoro-2-pyridyl)-1-methyl-pyrazol-4-yl]-1H-pyrrolo[2,3-b]pyridin-6-amine] |
| 236 | 12 | Cc1cc(-c2cn(CC(F)(F)F)nc2-c2ccc(F)cn2)c2cn[nH]c2n1 [Example 70, 4-(3-(5-Fluoropyridin-2-yl)-1-(2,2,2-trifluoroethyl)-1H-pyrazol-4-yl)-6-methyl-1H-pyrazolo[3,4-b]pyridine] |
| 253 | 6 | Cc1cc(-c2cn(CC(C)C)nc2-c2ccc(F)cn2)c2cn[nH]c2n1 [Example 63, 4-(3-(5-Fluoropyridin-2-yl)-1-isobutyl-1H-pyrazol-4-yl)-6-methyl-1H-pyrazolo[3,4-b]pyridine] |
